Measurements as given in patent publication US11274165B2, “Pentosan polysulfate, pharmaceutical composition, and anticoagulant” (OJI HOLDINGS CORPORATION, priority 2017, dated 2022).

How the values were obtained:
factor IIa = biological target: T1, factor IIa (Homo sapiens, UniProt P00734); experiment: Anti-IIa activity measured using Biophen heparin anti-IIa (Hyphen Biomed); type: biochemical
T1 construct: purchased Hyphen Biomed
Method: Moreover, the factor IIa inhibitory activity (anti-IIa activity) can be measured using Biophen heparin anti-IIa (manufactured by Hyphen Biomed).
Using Biophen heparin anti-IIa (manufactured by Hyphen Biomed), the anti-IIa activity of pentosan polysulfate sodium was measured.
(§1) The content of acetyl groups, the content of sulfur, the anti-Xa activity, and the anti-IIa activity were measured in the same manners as those of Examples 1 to 5.

factor Xa = experiment: Anti-Xa activity measured using Test Team Heparin S (Sekisui Medical); type: biochemical; conditions: for Anti-Xa/anti-IIa activity ratio: ratio of anti-Xa activity to anti-IIa activity
Method: Herein, the factor Xa inhibitory activity (anti-Xa activity) can be measured using Test Team (registered trademark) Heparin S (manufactured by Sekisui Medical Co., Ltd.).
Using Test Team (registered trademark) Heparin S (manufactured by Sekisui Medical Co., Ltd.), the anti-Xa activity of pentosan polysulfate sodium was measured.
as §1

[1] = Table 1, influence of content of acetyl groups
[2] = Table 3, influence of molecular weight

Substance: pentosan polysulfate sodium [Ex. 4]
- Anti-IIa activity (IU/mg) (factor IIa; [1]): 0.0934 IU/mg
- Anti-Xa activity (IU/mg) (factor Xa; [1]): 0.2419 IU/mg
- Anti-Xa/anti-IIa activity ratio (factor Xa; Table 1): 2.591

Substance: pentosan polysulfate sodium [Ex. 2]
- Anti-IIa activity (IU/mg) (factor IIa; [1]): 0.1845 IU/mg
- Anti-Xa activity (IU/mg) (factor Xa; [1]): 0.2588 IU/mg
- Anti-Xa/anti-IIa activity ratio (factor Xa; Table 1): 1.403

Substance: pentosan polysulfate sodium [Ex. 5]
- Anti-IIa activity (IU/mg) (factor IIa; [1]): 0.0976 IU/mg
- Anti-Xa activity (IU/mg) (factor Xa; [1]): 0.2297 IU/mg
- Anti-Xa/anti-IIa activity ratio (factor Xa; Table 1): 2.352

Substance: pentosan polysulfate sodium [Ex. 1]
- Anti-IIa activity (IU/mg) (factor IIa; [1]): 0.1405 IU/mg
- Anti-Xa activity (IU/mg) (factor Xa; [1]): 0.2047 IU/mg
- Anti-Xa/anti-IIa activity ratio (factor Xa; Table 1): 1.457

Substance: pentosan polysulfate sodium [Ex. 6]
- Anti-IIa activity (IU/mg) (factor IIa; [2]): 0.15 IU/mg
- Anti-Xa activity (IU/mg) (factor Xa; [2]): 0.67 IU/mg
- Anti-Xa/anti-IIa activity ratio (factor Xa; Table 3): 4.29

Substance: pentosan polysulfate sodium [Comp. Ex. 2]
- Anti-IIa activity (IU/mg) (factor IIa; [2]): 15.52 IU/mg
- Anti-Xa activity (IU/mg) (factor Xa; [2]): 1.69 IU/mg
- Anti-Xa/anti-IIa activity ratio (factor Xa; Table 3): 0.11

Substance: pentosan polysulfate sodium [Ex. 7]
- Anti-IIa activity (IU/mg) (factor IIa; [2]): 0.12 IU/mg
- Anti-Xa activity (IU/mg) (factor Xa; [2]): 0.15 IU/mg
- Anti-Xa/anti-IIa activity ratio (factor Xa; Table 3): 1.25

Substance: pentosan polysulfate sodium [Ex. 3]
- Anti-IIa activity (IU/mg) (factor IIa; [1]): 0.0676 IU/mg
- Anti-Xa activity (IU/mg) (factor Xa; [1]): 0.2439 IU/mg
- Anti-Xa/anti-IIa activity ratio (factor Xa; Table 1): 3.607

Substance: pentosan polysulfate sodium [Comp. Ex. 4]
- Anti-IIa activity (IU/mg) (factor IIa; [2]): 6.80 IU/mg
- Anti-Xa activity (IU/mg) (factor Xa; [2]): 0.73 IU/mg
- Anti-Xa/anti-IIa activity ratio (factor Xa; Table 3): 0.11

Substance: pentosan polysulfate sodium [Comp. Ex. 3, reference compound]
- Anti-IIa activity (IU/mg) (factor IIa; [2]): 62.12 IU/mg
- Anti-Xa activity (IU/mg) (factor Xa; [2]): 16.61 IU/mg
- Anti-Xa/anti-IIa activity ratio (factor Xa; Table 3): 0.15

Substance: pentosan polysulfate sodium [Ex. 8]
- Anti-IIa activity (IU/mg) (factor IIa; [2]): 0.43 IU/mg
- Anti-Xa activity (IU/mg) (factor Xa; [2]): 0.22 IU/mg
- Anti-Xa/anti-IIa activity ratio (factor Xa; Table 3): 0.51

Substance: pentosan polysulfate sodium [Comp. Ex. 1, reference compound]
- Anti-IIa activity (IU/mg) (factor IIa; [1]): 0.0221 IU/mg
- Anti-Xa activity (IU/mg) (factor Xa; [1]): 0.0840 IU/mg
- Anti-Xa/anti-IIa activity ratio (factor Xa; Table 1): 3.801
